One series concerns the target CYP3A4 (Homo sapiens (Human), UniProt P08684). In words: in vitro. An excerpt: The metabolism of retinoic acid and vitamin D in the skin is incompletely understood, but there is evidence for the involvement of CYP26A1, CYP3A4 and CYP2C8 in catalyzing the 4-hydroxylation of all-trans RA to 4-hydroxy-RA. It is believed, without being limited by theory, that CYP3A4 may be particularly important for ATRA metabolism in the skin. This is because CYP3A4 is expressed in skin, involved in RA metabolism, a CYP with one of the broadest substrate specificities of all of the known CYPs and available as a human recombinant protein in a commercial kit. Thus, a commercially available CYP3A4 assay was used as a surrogate to predict RAMBA potential in the skin.
The commercially available P450-GLO™ Assay kit (Promega Corporation, Madison Wis.) was used to screen various compounds for potential CYP activity, specifically CYP3A4A inhibition activity. CYP3A4A is thought to be among the primary CYP isoforms responsible for retinoic acid metabolism in the skin.
A commercially available P450-GLO™ Assay kit (Promega Corporation, Madison Wis.) is used to screen various compounds for CYP3A4A inhibition activity. CYP3A4A is thought to be one of the primary CYP isoforms responsible for retinoic acid metabolism in the skin.

The subject of series [1] is ATRA 4-hydroxylase (CYP) activity of pig liver microsomes. In words: In vitro ATRA 4-hydroxylase activity assay to determine CYP inhibition (pig liver microsomes). The text has this:
Cytochrome P450 is a large and diverse group of enzymes that catalyze the oxidation of organic substances. […] Applicant evaluated the potential RAMBA activity of several azoles using pig liver microsomes, a rich source of CYP activity, comprising many different CYP 450 isoforms. […] As understanding in this area has progressed, a more specific CYP inhibition assay can be used to provide better predictivity of activity in human skin. Nevertheless, this assay may still be used as a general predictor of overall CYP activity.
All procedures were carried out under minimal light in order to prevent degradation of the retinoid samples.
Microsomal preparation: one lobe of fresh pig liver was obtained at the time of slaughter from a food-processing company and immediately placed in ice cold 15 mM KH2PO4/250 mM sucrose (pH 7.4) and kept on ice during transportation. A 10 g sample of liver was minced and homogenized in 30 mls of homogenization buffer (15 mM KH2PO4/250 mM sucrose) using a Tekmar homoginizer by pulsing 3 times 20 second pulses. […] The remaining pig liver was cut into 10-g pieces and wrapped in aluminum foil and stored at −80° C. The homogenates from the 8 samples were pooled and centrifuged at 13,000×g for 20 minutes at 4° C. to remove crude debris and the supernatant was further centrifuged at 100,000×g for 70 minutes at 4° C. The microsomal pellets were resuspended into 50 mls of 150 mM KH2PO4/1 mM DTT (pH 7.4) and 1 mL aliquots were stored at −80° C.
100-150 μg of pig liver microsomal protein in 150 mM KH2PO4 is incubated at 37° C. in the presence of radiolabeled ATRA and 5 mM NADPH for 90 min. The final ATRA concentration is 1 μM, as a combination of [20-Methyl-^3H]ATRA and unlabeled ATRA. Initially, radiolabeled ATRA may be used to assist in validating the method. Once retention times of retinoid metabolites are identified, unlabeled ATRA is used for screening. Compounds tested as possible competitive substrates are added to the assay 10 min prior to the addition of ATRA. Ethanol, containing 0.1% butylated hydroxytoluene (BHT) as an antioxidant, is used to stop the reactions. For recovery of ATRA the pH of reactions are adjusted to 3.0 before extraction with 0.1N HCl. Retinoids are extracted from the protein aqueous phase with 4 mL hexane, 1 ml 100 μg/ml BHT in water (pH 3). An additional 4 mlL of hexane (pH 3) is used for a second extraction. The organic extractions are pooled, evaporated to dryness using a speed vac, and resuspended in 62.5 μl acetonitrile containing 1 mg/ml BHT. Samples are analyzed by HPLC.
Mobile phases used for gradient elution of retinoids are those of Duell et al., J. Clin. Invest. […] Mobile phase A is acetonitrile:0.02 M ammonium acetate:acetic acid (1:1:0.01) and mobile phase B is acetonitrile:0.2M ammonium acetate:acetic acid (19:1:0.008). At the start of the HPLC run, solvent A is run 100% followed by a linear gradient to solvent B at 3 minutes, a shallow gradient to 81% solvent B at 38 minutes, and 100% solvent B at 40 minutes. […] Effluent from the HPLC column flows directly into a flow-through scintillation spectrometer (β-RAM). Because of the sensitivity limitations of the β-RAM spectrometer, it is not used to quantitate peak areas but rather to confirm ATRA and ATRA 4-hydroxylase activity. Calculated peaks areas (using Millenium software—Waters Corp.) of ATRA and ATRA metabolites are used to quantify relative activity levels.
(Liver microsomes are vesicles of endoplasmic reticulum, rich in cytochrome P450 enzymes.)

Where [2] appears, read: read-out: IC50 (uM), CYP3A4 inhibition, P450-GLO Assay kit.
Setting [3] is: read-out: IC50 (μM), in vitro 4-hydroxylase inhibition assay, pig liver microsomes, 1 μM ATRA, 90 min at 37° C.

Read-outs that look alike come from different tables or passages of the source.

The IC50 is the concentration that gives 50% inhibition.

Sequence of CYP3A4 (P08684 whole entry): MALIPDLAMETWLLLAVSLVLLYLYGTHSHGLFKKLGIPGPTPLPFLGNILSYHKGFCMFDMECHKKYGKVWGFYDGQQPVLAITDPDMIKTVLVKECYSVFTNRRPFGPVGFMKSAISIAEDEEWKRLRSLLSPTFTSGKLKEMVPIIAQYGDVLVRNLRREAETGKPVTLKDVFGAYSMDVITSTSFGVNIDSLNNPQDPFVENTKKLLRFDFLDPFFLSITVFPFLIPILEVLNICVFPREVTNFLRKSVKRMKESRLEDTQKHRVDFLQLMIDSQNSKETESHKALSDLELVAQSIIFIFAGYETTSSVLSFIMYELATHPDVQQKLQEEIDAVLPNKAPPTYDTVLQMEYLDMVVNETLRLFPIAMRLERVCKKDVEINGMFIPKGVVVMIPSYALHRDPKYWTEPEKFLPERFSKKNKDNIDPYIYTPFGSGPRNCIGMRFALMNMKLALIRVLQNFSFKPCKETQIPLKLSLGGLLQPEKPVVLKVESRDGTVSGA

Regarding `Cc1cccc(C)c1N(Cn1cccn1)C(=O)CCl` [Metazachlor], the “hit / no hit, inhibition of CYP3A4” value on CYP3A4 (human) is reported as “no hit >10 uM (key: hit: strong inhibition (IC50 value<10 μM); no hit: weak/no inhibition (IC50 value >10 μM))”. In addition, at CYP3A4 (setting [2]), the IC50 is > 10 µM.
On to `CC(=O)n1ccnc1` [1-Acetylimidazole], for which the IC50 on CYP3A4 (setting [2]) is > 10 µM.
As for `c1ccc(-n2ccnc2)cc1` [1-phenylimidazole], in series [1] (pig liver microsomes), the “CYP inhibitory activity (in words), 4-hydroxylase assay” value was “in the same range as climbazole”. In series [1] (setting [3]), the IC50 stood at 52.5 µM. Further, at CYP3A4 (P450-GLO Assay kit), the “hit / no hit, inhibition of CYP3A4” value was “Hit” and the “inhibitory activity in the CYP3A4 assay (in words)” value was “showed inhibitory activity”.
`Clc1ccccc1-c1nc2ccccc2[nH]1` [2-(2-Chlorophenyl) benzimidazole]: at CYP3A4 (setting [2]), the IC50 was > 10 µM.
As for `C=Cn1ccnc1` [1-Vinylimidazole], the IC50 at CYP3A4 (setting [2]) is > 10 µM.
As for `Cn1ccnc1` [1-Methylimidazole], the IC50 against CYP3A4 (human) was > 10 µM.
The same measure, in the same setting: then `CC1=N[C@H](C(=O)O)CCN1` [Ectoine], with > 10 µM.
`CCc1nc(C)c[nH]1` [2-Ethyl-4-methylimidazole]: the IC50 on CYP3A4 (setting [2]) is > 10 µM.
For the molecule `NCCCn1ccnc1` [N-(3-Aminopropyl) imidazole], the concentration for half-maximal inhibition (IC50) against CYP3A4 (human) was > 10 µM.
As to `CCCCNC(=O)n1c(NC(=O)OC)nc2ccccc21` [Benomyl], the “hit / no hit, inhibition of CYP3A4” value on CYP3A4 (P450-GLO Assay kit) is reported as “no hit (weak/no inhibition (IC50 value >10 μM))”. The IC50 on CYP3A4 (setting [2]) is > 10 µM.
For the molecule `N=C(N)c1ccc(OCCCCCCOc2ccc(C(=N)N)cc2)cc1` [Hexamidine diisethionate], the 50% inhibitory concentration (IC50) on CYP3A4 (setting [2]) was > 10 µM.
Consider `c1ccc(Cn2ccnc2)cc1` [1-benzylimidazole], for which the IC50 in series [1] (setting [3]) is 77.5 µM.
Take `N[C@@H](Cc1c[nH]cn1)C(=O)O` [Histidine]: the IC50 at CYP3A4 (human) is > 10 µM.
Same read-out and setting: for `CC(NC(=O)[C@@H](N)CCC(=O)O)c1ncc[nH]1` (stereo partly drawn) [Glutamylamidoethyl] the value was > 10 µM.
Turning to `Cc1nccn1Cc1ccccc1` [1-benzyl-2-methylimidazole], the IC50 in series [1] (pig, 90 min, pH 7.4) worked out at 308 µM.
For the molecule `CCc1cccc(C)c1N(C(=O)CCl)[C@@H](C)COC` [Metolachlor], on CYP3A4 (P450-GLO Assay kit), the “hit / no hit, inhibition of CYP3A4” value is reported as “no hit (weak/no inhibition (IC50 value >10 μM))”. Further, the IC50 at CYP3A4 (setting [2]) is > 10 µM.
Consider `O=C(n1ccnc1)n1ccnc1` [1′-1-Carbonylimidazole], for which the IC50 on CYP3A4 (setting [2]) was > 10 µM.
Regarding `CC(=O)c1ccc(-n2ccnc2)cc1` [4′-(Imidazol-1yl) acetophenome], the “hit / no hit, inhibition of CYP3A4” value at CYP3A4 (human) is on record as “Hit”.
Turning to `Cc1ncc[nH]1` [2-Methylimidazole], the IC50 at CYP3A4 (setting [2]) was > 10 µM.
`CCCCc1nc(C=O)c(Cl)[nH]1` [2-Butyl-4-chloro-5-formylimidazole]: the IC50 at CYP3A4 (human) was > 10 µM.
The same measure, in the same setting: for `CCc1ncc[nH]1` [2-Ethylimidazole] the value was > 10 µM.
Consider `c1ccc2[nH]cnc2c1` [Benzimidazole], for which, at CYP3A4 (setting [2]), the IC50 was > 10 µM.
For the molecule `O=C(/C=C/C=C/c1ccc2c(c1)OCO2)N1CCCCC1` [Piperine], on CYP3A4 (human), the IC50 was ~10 µM and the “hit / no hit, inhibition of CYP3A4” value is “Hit”.
For `c1coc(-c2nc3ccccc3[nH]2)c1` [Fuberidazole], on CYP3A4 (human), the “hit / no hit, inhibition of CYP3A4” value was “no hit >10 uM (key: hit: strong inhibition (IC50 value<10 μM); no hit: weak/no inhibition (IC50 value >10 μM))”. On CYP3A4 (setting [2]), the IC50 is > 10 µM.
With `c1ccc(-c2nc[nH]c2-c2ccccc2)cc1` [4,5-diphenylimidazole], the IC50 in series [1] (pig, 90 min, pH 7.4) amounted to 100 µM.
In the case of `Cc1ccc2cc3c(ccc4ccccc43)c3c2c1CC3` [Methylcholanthrene], the “hit / no hit, inhibition of CYP3A4” value at CYP3A4 (P450-GLO Assay kit) is on record as “Near Hit”. The IC50 on CYP3A4 (setting [2]) was > 10 µM.
`Clc1ncnc2[nH]cnc12` [6-Chloropurine]: at CYP3A4 (human), the IC50 is > 10 µM.
On to `CC(C)(C(=O)c1cccnc1)c1cccnc1` [Metyrapone], for which, on CYP3A4 (human), the “hit / no hit, inhibition of CYP3A4” value is “Hit”.
`Nc1nc[nH]n1` [Amitrol]: on CYP3A4 (human), the IC50 was > 10 µM.
In the case of `Clc1ccc(COC(Cn2ccnc2)c2ccc(Cl)cc2Cl)c(Cl)c1` (stereo not drawn) [Miconazole], at CYP3A4 (human), the “hit / no hit, inhibition of CYP3A4” value is “Hit 5 uM”.
As to `CC(=O)/C=C/C1=C(C)CCCC1(C)C` [β-Ionone], at CYP3A4 (human), the IC50 is > 10 µM.
`c1ccc(-c2ncc[nH]2)cc1` [2-phenylimidazole, 2-Phenylimidazole]: the “CYP inhibitory activity (in words), 4-hydroxylase assay” value in series [1] (pig liver microsomes) is reported as “lacked any significant inhibitory activity”. In addition, the IC50 in series [1] (setting [3]) was > 500 µM; against CYP3A4 (human) it was > 10 µM. The “inhibitory activity in the CYP3A4 assay (in words)” value against CYP3A4 was “did not”. Also, the “hit / no hit, inhibition of CYP3A4” value at CYP3A4 (P450-GLO Assay kit) is recorded as “no hit (weak/no inhibition (IC50 value >10 μM))”.
Consider Diltazem, for which the “hit / no hit, inhibition of CYP3A4” value on CYP3A4 (P450-GLO Assay kit) is recorded as “no hit (weak/no inhibition (IC50 value >10 μM))”. In addition, the IC50 at CYP3A4 (setting [2]) was > 10 µM.
As for `c1ccc(-c2n[nH]cc2-c2ccnc3ccccc23)nc1` [LY-364947], the IC50 on CYP3A4 (human) is > 10 µM.
